According to patent US20250108139A1, “PEPTIDE UREA DERIVATIVE, PHARMACEUTICAL COMPOSITION CONTAINING PEPTIDE UREA DERIVATIVE, AND APPLICATION OF PEPTIDE UREA DERIVATIVE” (BIVISION PHARMACEUTICALS, INC, priority 2022, published 2025):

Tests used:
[1] = tested on: 22rv1 tumor-bearing Balb/c Nude mouse; test: Treatment efficacy in 22RV1 tumor-bearing mouse model; format: in vivo; settings: for T/C: 21st day; for Tumor volume, 21st day of group administration: mean ± standard error
Description: Balb/c Nude mouse, approximately 6-8 weeks old, were subcutaneously inoculated with 3×10^6 22rv1 cells (in 50% Matrigel, Corning) into the right scapular region. Once the tumors reached the required size for the experiment, the animals were randomly assigned into 11 experimental groups based on tumor volume, with 5 mouse per group. The body weight and tumor size of the animals were measured. On the day of grouping, treatments were administered as follows: control group (normal saline), group 1 (^177Lu-DB-13, 0.15 mCi/mouse), group 2 (^177Lu-DB-13, 0.45 mCi/mouse), group 3 (^177Lu-DB-13, 0.05 mCi/mouse), group 4 (^177Lu-B-11, 0.05 mCi/mouse), group 5 (^177Lu-DB-11, 0.15 mCi/mouse), group 6 (^177Lu-DB-11, 0.45 mCi/mouse), group 7 (^177Lu-PSMA-617, 0.15 mCi/mouse), group 8 (^177Lu-PSMA-617, 0.45 mCi/mouse), group 9 (^177Lu-DB-19, 0.05 mCi/mouse), group 10 (^177Lu-DB-19, 0.15 mCi/mouse), group 11 (^177Lu-DB-19, 0.45 mCi/mouse). After the start of treatment, general health and appearance were observed daily. Body weight and tumor size were measured at each sampling time point. Any abnormal observations during the study were recorded in the raw data.

PSMA protein = PSMA protein (Homo sapiens (Human), UniProt Q04609); test: Affinity of DB compounds to PSMA protein using Biacore (Effect Example 3); settings: Biacore 8K, 15° C., 1:1 binding model; pKD=−Log KD
Description: The affinity of DB compounds to PSMA protein was tested using the Biacore 8K (Cytiva) instrument to detect ligand binding to PSMA protein (Sino Biological). PSMA protein was captured on an SA chip. Before fixing the ligand (flow paths 1 and 2, flow rate of 10 μL/min), PSMA protein (10 μg/mL, flow rate of 5 μL/min, injection time of 600 s) was fixed on flow path 2 using a flow buffer. The sensor surface was adjusted by continuously injecting 1 M NaCl three times in 50 mM NaOH. After each ligand injection, additional cleaning was performed using isopropanol in 1 M NaCl and 50 mM NaOH (flow paths 1 and 2, flow rate of 10 μL/min, injection time of 60 s).
All compounds were dissolved in 100% DMSO and diluted to 10 mM, then further diluted to the appropriate highest concentration in the analysis buffer (PBS, PH 7.4, 1 mM TCEP ([…]), 0.05% P20, 2% DMSO). The analysis was conducted under the following conditions: 15° C. analysis temperature; analysis steps=all set to LMW kinetics; cycle type=single cycle (90 s contact time, 1800 s dissociation time, 30 μL/min flow rate, flow paths 1 and 2); detection in flow=path 2-1. Data evaluation was performed using Biacore Insight Evaluation Software, fitting the data to a 1:1 binding model.
Biacore results are shown in Table 5: pKD=−Log KD, wherein KD is the binding affinity of the compound to PSMA protein measured by Biacore. It is expressed by Kd (M)=Kd (1/s)/Ka (1/Ms). A indicates pKD>8; B indicates 7<pKD<8; C indicates 6<pKD<7; D indicates pKD<6.

[2] = Determination of Log P (n-octanol/water partition); format: physicochemical; settings: 177Lu-labeled compound, mean of three tubes
Description: Three EP tubes were prepared, each containing 0.1 mL of saturated n-octanol and 80 μL of ultrapure water. Then, 20 μL (approximately 1 MBq) of the ^177Lu-labeled DB-13, DB-18, and DB-19 compound solutions were added to the respective tubes. After shaking evenly, the tubes were centrifuged at room temperature (2000 r/min, 5 minutes, centrifugation radius of 10 cm). From each tube, 100 μL was taken from both the lipid layer and the aqueous layer, and the radioactivity counts per minute for both phases were measured. The Log P values were calculated, and their mean values were taken as the final result.

[3] = tested on: PSMA-positive 22rv1 tumor-bearing mouse; test: 177Lu labeling and animal biodistribution experiment, gamma counter; format: in vivo; settings: 177Lu-labeled compound, 24 h after tail vein injection, n = 2
Description: Distribution in PSMA-positive tumor-bearing mouse tissues: Tumor-bearing animals (purchased from Shanghai Alamo Pharmaceutical Technology Co., Ltd.) were subcutaneously inoculated with 3×10^6 22rv1 cells (in 50% Matrigel, Corning) into the right shoulder region of 6-9 week old (Balb/c Nude) mouse. Once the tumors had grown to an appropriate size, ^177Lu-radiolabeled DB compounds were injected into the mouse via the tail vein (approximately 1.85 MBq-3.7 MBq/mouse, specific activity: 22423.82 Kbq/μg). After administration, the animals were euthanized using carbon dioxide inhalation at 24 hours. The blood and organs (blood, liver, kidney, muscle, tumor) were collected.
Blood was collected through the abdominal aorta and 100 μL was immediately quantified into designated centrifuge tubes (weighed). After collection, the organs were washed twice with deionized water, dried, placed in pre-weighed tubes, and weighed again to calculate the sample weight. Samples were measured on the day of collection. All blood and tissue samples were measured for radioactivity using a gamma counter. The results are shown in FIGS. 3, 4, 5, 6, 7, and Table 6.

[4] = target: PSMA-expressing cells (22Rv1) (Homo sapiens (Human), UniProt Q04609); test: Competitive binding against radiolabeled PSMA-617 ligand on 22Rv1 cells; settings: unlabeled compound vs radiolabeled PSMA-617 ligand, on ice 2 hours
Description: (1) 22Rv1 cells in the logarithmic growth phase were prepared into a cell suspension, and the cell density was adjusted to 1×10^4 cells/mL. 1 mL of the cell suspension was seeded into each well of a 24-well cell culture plate. The cells were cultured overnight in a 37° C. incubator.
(2) The cell culture medium was aspirated, and the cells were washed once with PBS. Then, 975 μL of additive-free medium was added.
(3) To each well, 25 μL of a fixed concentration of radiolabeled PSMA-617 ligand (final concentration in the medium: 2 μCi/mL) and different concentrations (final concentrations in the medium: 1000 ng/ml, 100 ng/mL, 10 ng/mL, 1 ng/mL, 0.1 ng/mL, 0.01 ng/mL, 0.001 ng/mL, 0 ng/ml) of the unlabeled test blocking compounds DB-18, DB-19, DB-13, E-3 were added.
(4) The cells were incubated on ice for 2 hours.
(5) The cells were washed three times with ice-cold PBS.
(6) The cells were lysed with 0.5 mL of 1 M sodium hydroxide, and washed twice with 0.5 mL PBS. The sodium hydroxide (0.5 mL) and PBS (0.5 mL×2) solutions were collected for uptake counting.

albumin in rat plasma = test: Plasma protein binding (PPB) test by ultrafiltration; format: in vitro ADME; settings: 177Lu-labeled compound
Description: The labeled compounds ^177Lu-E-3, 177Lu-DB-13, 177Lu-DB-18, and ^177Lu-DB-19 (1 μCi) were prepared in a reaction solution by adding 50 μL of PBS to achieve a concentration of 20 μCi/mL. 50 μL of the 20 μCi/mL reaction solution was added to 200 μL of plasma, repeated for 3 tubes. The mixture was mixed well and incubated at room temperature for 10 minutes, then added to ultrafiltration tubes and centrifuged at 13000 rpm for 45 minutes. Following this, 50 μL of normal saline was added and the samples were centrifuged again for 15 minutes. The upper chamber and the filtrate were respectively counted for radioactivity.
PPB=[(upper chamber counts−background counts]/(filtrate counts+upper chamber counts−2*background counts)]*100%.

hPSMA-biotin = hPSMA-biotin (Homo sapiens (Human), UniProt Q04609); test: Binding kinetics and affinity with PSMA protein by Biacore 8K (Effect Example 1); settings: for Kd / kd / kon: 1:1 binding model; for kon: read-out: ka
Description: The dissociation constant was determined using the Biacore 8K (GE Healthcare) following the manufacturer's instructions. In brief, PSMA-bio protein, diluted in PBS pH 7.4 with 1 mM TCEP, 0.05% Tween 20, and 2% DMSO buffer, was immobilized on the flow cell of an SA sensor chip. Using PBS pH 7.4, 1 mM TCEP, 0.05% Tween 20, and 2% DMSO as the running buffer, five serial dilutions of the PSMA-targeting candidate molecules were injected into the flow cell at a rate of 30 μL/min, with a binding time of 90 seconds. The buffer flow was maintained for 1800 seconds to allow dissociation. The KD values for the interaction between the candidate small molecules and the PSMA protein were evaluated using Biacore 8K evaluation software 1.0 and a 1:1 binding model.

Chain of hPSMA-biotin (Q04609 whole entry): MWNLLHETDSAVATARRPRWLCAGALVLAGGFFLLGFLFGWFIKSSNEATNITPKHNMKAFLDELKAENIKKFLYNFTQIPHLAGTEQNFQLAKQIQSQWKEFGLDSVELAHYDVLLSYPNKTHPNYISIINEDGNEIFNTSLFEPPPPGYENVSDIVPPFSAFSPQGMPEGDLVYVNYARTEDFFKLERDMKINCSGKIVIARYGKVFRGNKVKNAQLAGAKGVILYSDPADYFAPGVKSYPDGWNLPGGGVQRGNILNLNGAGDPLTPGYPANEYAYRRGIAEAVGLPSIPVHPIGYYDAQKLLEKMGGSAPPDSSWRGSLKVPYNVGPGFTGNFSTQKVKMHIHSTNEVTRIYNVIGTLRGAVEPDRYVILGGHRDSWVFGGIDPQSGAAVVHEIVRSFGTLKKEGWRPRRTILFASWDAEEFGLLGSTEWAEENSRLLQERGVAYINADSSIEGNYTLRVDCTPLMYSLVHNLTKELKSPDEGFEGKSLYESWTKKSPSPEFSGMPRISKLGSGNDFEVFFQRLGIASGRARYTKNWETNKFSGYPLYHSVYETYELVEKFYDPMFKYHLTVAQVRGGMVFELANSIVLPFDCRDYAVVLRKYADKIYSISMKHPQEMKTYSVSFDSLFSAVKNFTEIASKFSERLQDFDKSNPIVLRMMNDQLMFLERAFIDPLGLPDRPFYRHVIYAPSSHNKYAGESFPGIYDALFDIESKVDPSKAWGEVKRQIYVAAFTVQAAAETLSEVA
Chain of PSMA protein (Q04609 whole entry): as above
Chain of PSMA-expressing cells (22Rv1) (Q04609 whole entry): as above

| Compound | Kd (PSMA protein) [nM] | Blood uptake [3] [% ID/g] | Kidney uptake [3] [% ID/g] | Liver uptake [3] [% ID/g] | Muscle uptake [3] [% ID/g] | Tumor uptake [3] [% ID/g] | also measured |
| --- | --- | --- | --- | --- | --- | --- | --- |
| O=C([O-])CN1CCN(CC(=O)[O-])CCN(CC(=O)NCC2CCC(C(=O)N[C@@H](Cc3ccc4ccccc4c3)C(=O)NCCCC[C@H](NC(=O)N[C@@H](CCC(=O)O)C(=O)O)C(=O)O)CC2)CCN(CC(=O)[O-])CC1.[177Lu+3] (stereo partly drawn) [177Lu-PSMA-617] | – | – | – | – | – | – | T/C ([1]; 0.15 mCi/mouse): 97.41%; Tumor volume, 21st day of group administration ([1]; 0.15 mCi/mouse): 2,616.99 ± 203.91 mm^3; T/C ([1]; 0.45 mCi/mouse): 101.47%; Tumor volume, 21st day of group administration ([1]; 0.45 mCi/mouse): 2,726.19 ± 926.52 mm^3 |
| O=C(O)CC[C@H](NC(=O)N[C@@H](CCCCNC(=O)[C@H](Cc1ccc2ccccc2c1)NC(=O)c1ccc2c(c1)CCN(C(=O)CN1CCN(CC(=O)O)CCN(CC(=O)O)CCN(CC(=O)O)CC1)C2)C(=O)O)C(=O)O [Compound E-3, reference compound] | < 10 | 0.02 | 2.01 | 0.09 | 0.035 | 32.875 | logP [2]: -3.46; IC50 [4]: 2.06 nM; plasma protein binding ratio (albumin binding ratio) (albumin in rat plasma): 86.61% |
| O=C(O)CC[C@H](NC(=O)N[C@@H](CCCCNC(=O)[C@H](Cc1ccc2ccccc2c1)NC(=O)[C@H]1CC[C@H](CNC(=O)c2cc(NC(=O)CN3CCN(CC(=O)O)CCN(CC(=O)O)CCN(CC(=O)O)CC3)cc(C(=O)NC[C@H]3CC[C@H](C(=O)N[C@@H](Cc4ccc5ccccc5c4)C(=O)NCCCC[C@H](NC(=O)N[C@@H](CCC(=O)O)C(=O)O)C(=O)O)CC3)c2)CC1)C(=O)O)C(=O)O [DB-01] | < 10 | – | – | – | – | – | binding affinity compared with PSMA-617 (hPSMA-biotin): slightly higher than that of PSMA-617; Kd (hPSMA-biotin): 0.12 nM; kd (hPSMA-biotin): 2.65e-05 s⁻¹; kon (hPSMA-biotin): 222000 M⁻¹ s⁻¹ |
| O=C(O)CC[C@H](NC(=O)NC(CCCCNC(=O)[C@H](Cc1ccc2ccccc2c1)NC(=O)c1ccc2c(c1)CCN(C(=O)c1cc(NC(=O)CN3CCN(CC(=O)O)CCN(CC(=O)O)CCN(CC(=O)O)CC3)cc(C(=O)N3CCc4cc(C(=O)N[C@@H](Cc5ccc6ccccc6c5)C(=O)NCCCC[C@H](NC(=O)N[C@@H](CCC(=O)O)C(=O)O)C(=O)O)ccc4C3)c1)C2)C(=O)O)C(=O)O (stereo partly drawn) [DB-18] | < 10 | – | – | – | – | – | logP [2]: -1.86; IC50 [4]: 2.58 nM; plasma protein binding ratio (albumin binding ratio) (albumin in rat plasma): 70.51% |
| O=C(O)CC[C@H](NC(=O)N[C@@H](CCCCNC(=O)[C@H](Cc1ccc2ccccc2c1)NC(=O)c1ccc2c(c1)CCN(C(=O)CCC(=O)NCCCC[C@H](NC(=O)CCC(=O)N1CCc3cc(C(=O)N[C@@H](Cc4ccc5ccccc5c4)C(=O)NCCCC[C@H](NC(=O)N[C@@H](CCC(=O)O)C(=O)O)C(=O)O)ccc3C1)C(=O)NCCNC(=O)CN1CCN(CC(=O)O)CCN(CC(=O)O)CCN(CC(=O)O)CC1)C2)C(=O)O)C(=O)O [DB-11] | < 10 | 1.125 | 87.105 | 1.625 | 0.055 | 41.83 | tumor growth inhibition ([1]; high dose 0.45 mCi, effect decreased over time, remained higher than PSMA-617): a certain degree of tumor growth inhibition |
| O=C(O)CC[C@H](NC(=O)N[C@@H](CCCCNC(=O)[C@H](Cc1ccc2ccccc2c1)NC(=O)c1ccc2c(c1)CCN(C(=O)CCC(=O)NCC(=O)N1CN(C(=O)CNC(=O)CCC(=O)N3CCc4cc(C(=O)N[C@@H](Cc5ccc6ccccc6c5)C(=O)NCCCC[C@H](NC(=O)N[C@@H](CCC(=O)O)C(=O)O)C(=O)O)ccc4C3)CN(C(=O)CNC(=O)CN3CCN(CC(=O)O)CCN(CC(=O)O)CCN(CC(=O)O)CC3)C1)C2)C(=O)O)C(=O)O [DB-14] | < 10 | 0.06 | 31.72 | 0.37 | 0.1 | 43.175 | – |
| O=C(O)CC[C@H](NC(=O)N[C@@H](CCCCNC(=O)[C@H](Cc1ccc2ccccc2c1)NC(=O)[C@H]1CC[C@H](CNC(=O)CN2CCN(CC(=O)O)CCN(CC(=O)O)CCN(CC(=O)O)CC2)CC1)C(=O)O)C(=O)O [PSMA-617, reference compound] | < 10 | – | – | – | – | – | Kd (hPSMA-biotin): 0.483 nM; kd (hPSMA-biotin): 4.88e-05 s⁻¹; kon (hPSMA-biotin): 101000 M⁻¹ s⁻¹ |
